Data taken from ChEMBL document CHEMBL4265943, “Design and synthesis of potent dual inhibitors of JAK2 and HDAC based on fusing the pharmacophores of XL019 and vorinostat” (Eur J Med Chem, 2018).
Calls of active or inactive are those of the source. The rule behind the calls is not given here.

Assays:
[1] = target: T1, Tyrosine-protein kinase JAK2 (Homo sapiens, UniProt O60674); assay: Inhibition of human JAK2 at 10 uM using poly(Glu:Tyr)(4:1) as substrate preincubated for 20 mins followed by [gamma33P]ATP addition measured after 120 mins by ion exchange filter paper method relative to control
PC-3 = assay: Antiproliferative activity against human PC3 cells after 72 hrs by MTT assay; assay type: functional, cell-based; details: PC-3, 72 h
[2] = Antiproliferative activity against human XG6 cells after 72 hrs by MTT assay; assay type: functional, cell-based; details: XG6, 72 h
[3] = Antiproliferative activity against human AC10 cells after 72 hrs by MTT assay; assay type: cell-based
[4] = Selectivity index, ratio of CC50 for human AC10 cells to IC50 for human XG6 cells; assay type: toxicity; details: AC10 cells (CC50) and XG6 cells (IC50)
[5] = target: T1, Tyrosine-protein kinase JAK2; assay: Inhibition of JAK2 in human HeLa cells assessed as reduction in STAT5 phosphorylation at 15 to 20 uM after 1 hr by immunoblot analysis; assay type: cell-based
MCF7 = assay: Antiproliferative activity against human MCF7 cells after 72 hrs by MTT assay; assay type: functional, cell-based; details: MCF7, 72 h
MDA-MB-231 = assay: Antiproliferative activity against human MDA-MB-231 cells after 72 hrs by MTT assay; assay type: functional, cell-based; details: MDA-MB-231, 72 h
Homo sapiens = organism: Homo sapiens; assay: Selectivity ratio of IC50 for HDAC1 (unknown origin) to IC50 for HDAC6 (unknown origin)
Histone deacetylase 1 = Histone deacetylase 1 (Homo sapiens, UniProt Q13547); assay: Inhibition of HDAC1 (unknown origin) using Arg-His-Lys-Lys(Ac) as substrate preincubated with enzyme followed by substrate addition for 2 hrs and measured for 1.5 hrs at 15 mins time interval by fluorescence assay
[6] = Selectivity index, ratio of CC50 for mouse TAMH cells to IC50 for human XG6 cells; assay type: toxicity; details: TAMH cells (CC50) and XG6 cells (IC50)
[7] = target: T2, Protein deacetylase HDAC6 (Homo sapiens) (UniProt Q9UBN7); assay: Inhibition of HDAC6 in human HEL 92.1.7 cells assessed as increase in acetylated tubulin level at 1 uM after 1 hr by immunoblot analysis; assay type: cell-based
T2 sequence (whole entry): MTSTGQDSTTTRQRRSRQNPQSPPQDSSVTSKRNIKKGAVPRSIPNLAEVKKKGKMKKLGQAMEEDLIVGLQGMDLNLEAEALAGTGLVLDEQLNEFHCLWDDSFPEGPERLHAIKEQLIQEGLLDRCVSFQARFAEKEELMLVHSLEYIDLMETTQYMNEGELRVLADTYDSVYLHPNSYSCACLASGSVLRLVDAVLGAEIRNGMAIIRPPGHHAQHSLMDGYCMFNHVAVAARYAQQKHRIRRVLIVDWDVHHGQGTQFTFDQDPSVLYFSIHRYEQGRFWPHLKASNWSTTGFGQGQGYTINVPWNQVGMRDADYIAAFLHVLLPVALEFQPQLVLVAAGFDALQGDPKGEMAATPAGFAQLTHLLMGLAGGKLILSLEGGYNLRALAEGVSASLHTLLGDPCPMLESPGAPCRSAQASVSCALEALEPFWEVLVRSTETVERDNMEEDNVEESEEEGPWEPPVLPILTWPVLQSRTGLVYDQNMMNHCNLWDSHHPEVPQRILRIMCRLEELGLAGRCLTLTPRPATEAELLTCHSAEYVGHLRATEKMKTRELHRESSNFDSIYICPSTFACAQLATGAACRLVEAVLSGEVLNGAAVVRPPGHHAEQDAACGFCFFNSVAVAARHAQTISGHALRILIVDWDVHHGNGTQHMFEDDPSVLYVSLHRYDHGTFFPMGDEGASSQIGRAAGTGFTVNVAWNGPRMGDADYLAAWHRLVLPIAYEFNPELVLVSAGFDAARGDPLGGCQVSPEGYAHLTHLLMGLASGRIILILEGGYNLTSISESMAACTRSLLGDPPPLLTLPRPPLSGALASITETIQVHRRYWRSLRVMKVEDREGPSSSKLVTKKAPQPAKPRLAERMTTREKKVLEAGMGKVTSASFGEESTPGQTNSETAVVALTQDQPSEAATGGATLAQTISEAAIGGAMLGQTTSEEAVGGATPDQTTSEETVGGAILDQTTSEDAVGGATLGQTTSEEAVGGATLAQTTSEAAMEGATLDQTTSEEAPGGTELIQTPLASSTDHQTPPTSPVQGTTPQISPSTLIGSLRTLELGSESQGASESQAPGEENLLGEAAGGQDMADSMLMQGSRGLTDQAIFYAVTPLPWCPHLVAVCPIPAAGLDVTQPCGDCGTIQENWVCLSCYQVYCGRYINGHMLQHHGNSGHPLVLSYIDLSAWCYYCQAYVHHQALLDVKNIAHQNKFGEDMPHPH

HEL 92.1.7 = assay: cells; assay type: functional, cell-based; details: Homo sapiens, HEL 92.1.7, 72 h
Description: Antiproliferative activity against human HEL 92.1.7 cells after 72 hrs by MTT assay

[8] = Selectivity index, ratio of CC50 for human AC10 cells to IC50 for human KMS-12-BM cells; assay type: toxicity; details: AC10 cells (CC50) and KMS-12-BM cells (IC50)
KMS-12-BM = assay: Antiproliferative activity against human KMS-12-BM cells after 72 hrs by MTT assay; assay type: functional, cell-based
[9] = target: T1, Tyrosine-protein kinase JAK2; assay: Inhibition of JAK2 in human HeLa cells assessed as increase in JAK2 phosphorylation at 15 to 20 uM after 1 hr by immunoblot analysis; assay type: cell-based
HCT-116 = assay: Antiproliferative activity against human HCT116 cells after 72 hrs by MTT assay; assay type: functional, cell-based; details: HCT-116, 72 h
[10] = Antiproliferative activity against mouse TAMH cells after 72 hrs by MTT assay; assay type: cell-based
[11] = target: T1, Tyrosine-protein kinase JAK2; assay: Inhibition of human JAK2 using poly(Glu:Tyr)(4:1) as substrate preincubated for 20 mins followed by [gamma33P]ATP addition measured after 120 mins by ion exchange filter paper method
[12] = Selectivity index, ratio of CC50 for mouse TAMH cells to IC50 for human KMS-12-BM cells; assay type: toxicity; details: TAMH cells (CC50) and KMS-12-BM cells (IC50)
[13] = target: T3, Protein deacetylase HDAC6 (Homo sapiens, UniProt Q9UBN7); assay: Inhibition of HDAC6 (unknown origin) using Arg-His-Lys-Lys(Ac) as substrate preincubated with enzyme followed by substrate addition for 2 hrs and measured for 1.5 hrs at 15 mins time interval by fluorescence assay
T3 sequence (Q9UBN7 whole entry): T2 sequence (whole entry)

[14] = target: Histone deacetylase 1/2/3 (Homo sapiens) (UniProt Q13547+O15379+Q92769); assay: Inhibition of HDAC1/HDAC2/HDAC3 in human HEL 92.1.7 cells assessed as increase in acetylated […] level at 1 uM after 1 hr by immunoblot analysis; assay type: cell-based
Jurkat = assay: Antiproliferative activity against human Jurkat cells after 72 hrs by MTT assay; assay type: functional, cell-based
[15] = Selectivity index, ratio of CC50 for human AC10 cells to IC50 for human MDA-MB-231 cells; assay type: toxicity; details: AC10 cells (CC50) and MDA-MB-231 cells (IC50)
[16] = Selectivity index, ratio of CC50 for mouse TAMH cells to IC50 for human HCT116 cells; assay type: toxicity; details: TAMH cells (CC50) and HCT116 cells (IC50)
[17] = Selectivity index, ratio of CC50 for mouse TAMH cells to IC50 for human MCF7 cells; assay type: toxicity; details: TAMH cells (CC50) and MCF7 cells (IC50)
[18] = Selectivity index, ratio of CC50 for human AC10 cells to IC50 for human HEL 92.1.7 cells; assay type: toxicity; details: AC10 cells (CC50) and HEL 92.1.7 cells (IC50)
[19] = Selectivity index, ratio of CC50 for mouse TAMH cells to IC50 for human MDA-MB-231 cells; assay type: toxicity; details: TAMH cells (CC50) and MDA-MB-231 cells (IC50)
[20] = Selectivity index, ratio of CC50 for human AC10 cells to IC50 for human HCT116 cells; assay type: toxicity; details: AC10 cells (CC50) and HCT116 cells (IC50)
[21] = Selectivity index, ratio of CC50 for mouse TAMH cells to IC50 for human HEL 92.1.7 cells; assay type: toxicity; details: TAMH cells (CC50) and HEL 92.1.7 cells (IC50)
[22] = Selectivity index, ratio of CC50 for mouse TAMH cells to IC50 for human Jurkat cells; assay type: toxicity; details: TAMH cells (CC50) and Jurkat cells (IC50)
[23] = Selectivity index, ratio of CC50 for mouse TAMH cells to IC50 for human PC3 cells; assay type: toxicity; details: TAMH cells (CC50) and PC3 cells (IC50)
[24] = Selectivity index, ratio of CC50 for human AC10 cells to IC50 for human MCF7 cells; assay type: toxicity; details: AC10 cells (CC50) and MCF7 cells (IC50)
[25] = Selectivity index, ratio of CC50 for human AC10 cells to IC50 for human PC3 cells; assay type: toxicity; details: AC10 cells (CC50) and PC3 cells (IC50)
[26] = Selectivity index, ratio of CC50 for human AC10 cells to IC50 for human Jurkat cells; assay type: toxicity; details: AC10 cells (CC50) and Jurkat cells (IC50)

T1 sequence (O60674 whole entry): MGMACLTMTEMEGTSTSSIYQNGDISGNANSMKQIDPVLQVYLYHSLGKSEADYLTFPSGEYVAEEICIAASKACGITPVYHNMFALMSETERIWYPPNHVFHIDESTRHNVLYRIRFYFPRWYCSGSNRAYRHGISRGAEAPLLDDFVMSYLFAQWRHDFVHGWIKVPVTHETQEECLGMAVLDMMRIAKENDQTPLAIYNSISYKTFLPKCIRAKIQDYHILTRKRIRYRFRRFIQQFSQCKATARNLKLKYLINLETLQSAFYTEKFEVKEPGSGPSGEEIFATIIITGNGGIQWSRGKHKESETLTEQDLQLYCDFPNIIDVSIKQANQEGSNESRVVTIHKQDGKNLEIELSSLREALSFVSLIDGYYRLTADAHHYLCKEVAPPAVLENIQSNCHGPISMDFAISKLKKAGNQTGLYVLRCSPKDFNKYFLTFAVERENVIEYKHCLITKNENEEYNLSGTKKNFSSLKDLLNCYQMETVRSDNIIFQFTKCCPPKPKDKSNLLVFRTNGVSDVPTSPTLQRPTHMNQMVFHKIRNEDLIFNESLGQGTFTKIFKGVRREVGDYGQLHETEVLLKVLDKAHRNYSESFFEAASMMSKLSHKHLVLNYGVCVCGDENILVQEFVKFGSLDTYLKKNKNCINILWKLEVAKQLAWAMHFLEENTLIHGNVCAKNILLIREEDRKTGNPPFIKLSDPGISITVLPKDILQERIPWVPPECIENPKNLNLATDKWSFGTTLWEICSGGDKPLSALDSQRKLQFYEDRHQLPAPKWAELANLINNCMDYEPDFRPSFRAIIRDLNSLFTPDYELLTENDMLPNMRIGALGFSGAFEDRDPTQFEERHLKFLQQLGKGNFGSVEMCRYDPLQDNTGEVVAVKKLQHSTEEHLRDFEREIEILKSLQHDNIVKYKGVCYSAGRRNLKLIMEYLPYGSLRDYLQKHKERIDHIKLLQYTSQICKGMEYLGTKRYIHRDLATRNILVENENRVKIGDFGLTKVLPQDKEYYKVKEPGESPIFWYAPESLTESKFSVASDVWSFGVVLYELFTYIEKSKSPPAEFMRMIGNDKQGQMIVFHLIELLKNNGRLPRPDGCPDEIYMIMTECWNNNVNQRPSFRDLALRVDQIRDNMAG
Histone deacetylase 1, sequence (Q13547 whole entry): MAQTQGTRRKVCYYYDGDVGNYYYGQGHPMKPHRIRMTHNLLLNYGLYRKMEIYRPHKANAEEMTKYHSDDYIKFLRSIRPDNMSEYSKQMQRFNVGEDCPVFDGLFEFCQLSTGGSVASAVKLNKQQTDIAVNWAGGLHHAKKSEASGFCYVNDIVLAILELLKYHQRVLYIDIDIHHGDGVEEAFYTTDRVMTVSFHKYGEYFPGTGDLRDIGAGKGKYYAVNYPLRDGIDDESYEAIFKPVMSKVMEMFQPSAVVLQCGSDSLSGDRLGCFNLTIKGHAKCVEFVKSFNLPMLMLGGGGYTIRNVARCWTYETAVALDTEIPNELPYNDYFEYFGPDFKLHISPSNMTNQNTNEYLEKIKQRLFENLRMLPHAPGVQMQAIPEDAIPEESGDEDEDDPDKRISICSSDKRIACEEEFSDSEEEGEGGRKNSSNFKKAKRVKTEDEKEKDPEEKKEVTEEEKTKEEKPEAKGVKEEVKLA

SMILES | inhibition [1] [%] | IC50 (PC-3) [µM] | IC50 [2] [µM] | CC50 at 72 h [3] [µM] | selectivity ratio [4] | IC50 (MCF7) [µM] | IC50 (MDA-MB-231) [µM] | IC50 (Histone deacetylase 1) [µM] | selectivity ratio [6] | IC50 (HEL 92.1.7) [µM] | selectivity ratio [8] | IC50 (KMS-12-BM) [µM] | IC50 (HCT-116) [µM] | CC50 at 72 h [10] [µM] | IC50 [11] [µM] | selectivity ratio [12] | IC50 [13] [µM] | IC50 (Jurkat) [µM] | selectivity ratio [15] | selectivity ratio [16] | further results
CC(=O)Nc1ccc(-c2ccnc(NCCc3ccccc3)n2)cc1 | 6.22 | – | – | – | – | – | – | – | – | – | – | – | – | – | – | – | – | – | – | – | –
CC(=O)Nc1ccc(-c2ccnc(Nc3ccc(NC(=O)CCCCCCC(=O)NO)cc3)n2)cc1 | – | 3.84 | 3.17 | 19.5 | 6.16 | 1.09 | 1.54 | 0.774 | 3.95 | 2.53 | 16.8 | 1.16 | 1.97 | 12.5 | 0.0009 | 10.8 | 0.0001 | – | – | – | inhibition [5]: Active; Ratio IC50 (Homo sapiens): > 7000; inhibition [7]: Active; inhibition [9]: Active; inhibition [14]: Active
CC(=O)Nc1ccc(-c2ccnc(NCc3ccccc3)n2)cc1 | 3.85 | – | – | – | – | – | – | – | – | – | – | – | – | – | – | – | – | – | – | – | –
CC(=O)Nc1ccc(-c2ccnc(Nc3cccc(NC(=O)CCCCC(=O)NO)c3)n2)cc1 | – | 18.6 | – | – | – | 26.7 | 14.6 | 0.384 | – | > 10 | – | – | 34.1 | – | 0.0026 | – | 0.0046 | > 10 | – | – | Ratio IC50 (Homo sapiens): 100
CC(=O)Nc1ccc(-c2ccnc(Nc3ccccc3)n2)cc1 | 96.4 | – | – | – | – | – | – | – | – | – | – | – | – | – | 0.0274 | – | – | – | – | – | –
CC(=O)Nc1ccc(-c2ccnc(Nc3cccc(OCCCCCCCC(=O)NO)c3)n2)cc1 | – | 1.64 | 7.22 | > 100 | > 13.9 | 1.22 | 3.61 | 1.04 | 0.38 | 3.34 | > 147 | 0.68 | 1.51 | 2.77 | 0.017 | 4.07 | 0.0067 | > 10 | > 27.7 | 1.83 | selectivity ratio [17]: 2.27; selectivity ratio [18]: > 30; selectivity ratio [19]: 0.77; selectivity ratio [20]: > 66.2; selectivity ratio [21]: 0.83; selectivity ratio [22]: < 0.28; selectivity ratio [23]: 1.69; selectivity ratio [24]: > 82; selectivity ratio [25]: > 61; selectivity ratio [26]: 3
CC(=O)Nc1ccc(-c2ccnc(Nc3cccc(OCCCCCCC(=O)NO)c3)n2)cc1 | – | 1.89 | 4.69 | 2.99 | 0.64 | 2.42 | 1.76 | 0.083 | 1.5 | 0.97 | 8.54 | 0.35 | 0.66 | 7.02 | 0.0036 | 20.1 | 0.0018 | 1.06 | 1.7 | 10.6 | selectivity ratio [17]: 2.9; selectivity ratio [18]: 3.08; selectivity ratio [19]: 3.99; selectivity ratio [20]: 4.53; selectivity ratio [21]: 7.24; selectivity ratio [22]: 6.65; selectivity ratio [23]: 3.71; selectivity ratio [24]: 1.24; selectivity ratio [25]: 1.58; selectivity ratio [26]: 2.92
CC(=O)Nc1ccc(-c2ccnc(Nc3cccc(OCCCCCC(=O)NO)c3)n2)cc1 | – | 1.66 | 3.7 | 2.93 | 0.79 | 2.55 | 1.24 | 0.637 | 2.39 | 1.83 | 14.7 | 0.2 | 0.79 | 8.86 | 0.0034 | 44.3 | 0.0024 | 1.19 | 2.36 | 11.2 | selectivity ratio [17]: 3.47; selectivity ratio [18]: 1.61; selectivity ratio [19]: 7.15; selectivity ratio [20]: 3.71; selectivity ratio [21]: 4.85; selectivity ratio [22]: 7.45; selectivity ratio [23]: 5.34; selectivity ratio [24]: 1.15; selectivity ratio [25]: 1.77; selectivity ratio [26]: 1.35
